Measurements reported in patent US20180206499A1, “METHOD OF IMPROVING PLANT HEALTH AND ROOTING OF PLANTS” (Bayer CropScience LP, priority 2017, published 2018).

Legend:
Assay type in all cases: in vivo
[1] = system: Shortleaf pine (P. echinata); test: Pinus echinata seed pot test, soil sprayed with indaziflam composition; settings: soil spray; for root weight: untreated root approx. 0.05 grams; for shoot weight: untreated shoot approx. 0.10 grams
Description: Shortleaf pine (P. echinata) seeds were soaked in water for 24 hours and then placed in cold storage in a punctured bag for four weeks.
(§1) 20 seeds were placed in pots on soil surface and topdressed with one cup of sandy loam soil, about ⅛″ to ¼″ deep. The pots were irrigated and allowed to settle for 24 hours.
The soil was sprayed with a commercially available composition comprising indaziflam (commercial name […]) using a single nozzle with a compressed CO2 backpack set at 32 psi for 25 gallons per acre. Overhead irrigation was set for twice daily.

[2] = system: Virginia pine (P. virginiana); test: Pinus virginiana seed pot test, soil sprayed with indaziflam composition; settings: Esplanade 200SC soil spray; for root weight: untreated root approx. 0.05 grams; for shoot weight: untreated shoot approx. 0.11 grams
Description: Virginia pine (P. virginiana) seeds were soaked in water for 24 hours and then placed in cold storage in a punctured bag for four weeks.
as §1
(§2) The soil was sprayed with a commercially available composition comprising indaziflam (commercial name Esplanade 200SC) using a single nozzle with a compressed CO2 backpack set at 32 psi for 25 gallons per acre. Overhead irrigation was set for twice daily.

Loblolly pine (P. taeda) = test: Pinus taeda seed pot test, soil sprayed with indaziflam composition; settings: Esplanade 200SC soil spray; for root weight: untreated root approx. 0.06 grams; for shoot weight: untreated shoot approx. 0.19 grams
Description: Loblolly pine (P. taeda) seeds were soaked in water for 24 hours and then placed in cold storage in a punctured bag for four weeks.
as §1, §2

With `Cc1ccc2c(c1)[C@H](Nc1nc(N)nc(C(C)F)n1)[C@@H](C)C2` (mixture of isomers) [indaziflam, N2[(1R,2S)-2,3-dihydro-2,6-dimethyl-1H-inden-1-yl]-6-[(1RS)-1-fluoroethyl]-1,3,5-triazine-2,4-diamine] the root weight ([1]; 50 g indaziflam per hectare) was “approximately 0.13 grams”, the shoot weight ([1]; 50 g indaziflam per hectare) was “approximately 0.34 grams” and the root weight ([1]; 71.4 g indaziflam per hectare) was “approximately 0.27 grams”. For the same compound, the shoot weight ([1]; 71.4 g indaziflam per hectare) was “approximately 0.40 grams”, the root weight ([1]; 100 g indaziflam per hectare) was “approximately 0.22 grams” and the shoot weight ([1]; 100 g indaziflam per hectare) was “approximately 0.24 grams”. For the same compound, the root weight ([2]; 50 g indaziflam per hectare) was “approximately 0.14 grams”, the shoot weight ([2]; 50 g indaziflam per hectare) was “approximately 0.23 grams” and the root weight ([2]; 71.4 g indaziflam per hectare) was “approximately 0.27 grams”. The shoot weight ([2]; 71.4 g indaziflam per hectare) was “approximately 0.41 grams”, the root weight ([2]; 100 g indaziflam per hectare) was “approximately 0.22 grams” and the root weight (Loblolly pine (P. taeda); 50 g indaziflam per hectare) was “approximately 0.15 grams”. The shoot weight (Loblolly pine (P. taeda); 50 g indaziflam per hectare) was “approximately 0.30 grams”, the root weight (Loblolly pine (P. taeda); 71.4 g indaziflam per hectare) was “approximately 0.25 grams” and the shoot weight (Loblolly pine (P. taeda); 71.4 g indaziflam per hectare) was “approximately 0.50 grams”. The root weight (Loblolly pine (P. taeda); 100 g indaziflam per hectare) was “approximately 0.14 grams” and the shoot weight (Loblolly pine (P. taeda); 100 g indaziflam per hectare) was “approximately 0.22 grams”.
